Calls of active or inactive are those of the source. How the calls were made is not given here.
Biological target: Methionine sulfoxide reductase A (Bos taurus)
Assay: bovine MsrA activator potency, dose response, biochemical, absorbance, late stage (AID 624497)
Settings: purified MsrA enzyme activity, absorbance read-out

c1ccc2[nH]c3cc4ncnc4cc3nc2c1
EC50: inactive

O=C1C=C(Nc2ccccc2O)c2ccccc2C1=O
EC50: > 104 µM (inactive)

O=C(COC(=O)c1ccc([N+](=O)[O-])s1)Nc1cccc(S(=O)(=O)NC2=NCCCCC2)c1
EC50: > 104 µM (inactive)

Cc1oc2c(c1C(=O)c1ccccc1)C(=O)C(=O)c1ccccc1-2
EC50: > 104 µM (inactive)

COc1ccc(S(=O)(=O)N2CCOCC2)cc1NC(=O)COC(=O)c1ccc([N+](=O)[O-])s1
EC50: inactive

O=C(COC(=O)c1ccc([N+](=O)[O-])s1)NCCc1ccccc1
EC50: inactive

O=C(COC(=O)c1ccc([N+](=O)[O-])s1)Nc1ccccc1
EC50: > 104 µM (inactive)

NC1=C(Br)C(=O)c2ccccc2C1=O
EC50: > 104 µM (inactive)

O=C(OCC(=O)c1c[nH]c2ccccc12)c1ccc([N+](=O)[O-])s1
EC50: > 104 µM (inactive)

C[n+]1c2ccccc2nc2ccc(NCCO)cc21
EC50: 4.93 µM

O=C(c1ccccc1)c1coc2c1C(=O)c1ccccc1C2=O
EC50: inactive

O=C(OCC(=O)N(c1ccccc1)c1ccccc1)c1ccc([N+](=O)[O-])s1
EC50: inactive

O=C(OCc1nnc(-c2ccccc2)o1)c1ccc([N+](=O)[O-])s1
EC50: inactive

O=C1c2ccccc2-c2nnc(-c3ccccc3)cc21
EC50: > 104 µM (inactive)

COc1cc(NC(=O)COC(=O)c2ccc([N+](=O)[O-])s2)cc(OC)c1OC
EC50: > 104 µM (inactive)

O=C1CN(C(=O)COC(=O)c2ccc([N+](=O)[O-])s2)c2ccccc2N1
EC50: inactive

O=C1C(Cl)=C(Nc2ccc(O)cc2)C(=O)c2ccccc21
EC50: > 104 µM (inactive)

CNc1ccc2nc3ccccc3[n+](C)c2c1
EC50: 2.05 µM

CC(C)(C)c1ccc(NC(=O)COC(=O)c2ccc([N+](=O)[O-])s2)cc1
EC50: > 104 µM (inactive)

O=C(COC(=O)c1ccc([N+](=O)[O-])s1)NCc1ccc(F)cc1
EC50: inactive

Cc1ccc2[nH]c3c(c2c1)CN(C(=O)CN1CCN(c2ccccn2)CC1)CC3
EC50: > 104 µM (inactive)

O=C(COC(=O)c1ccc([N+](=O)[O-])s1)NNC(=O)c1ccccc1
EC50: > 104 µM (inactive)

O=C(COC(=O)c1ccc([N+](=O)[O-])s1)c1ccc[nH]1
EC50: inactive

O=C(OCC(=O)N1CCN(c2ccccc2)CC1)c1ccc([N+](=O)[O-])s1
EC50: inactive

COCCCn1c(=O)c2ccccc2n2c(=S)[nH]nc12
EC50: > 104 µM (inactive)

COc1ccccc1NC(=O)COC(=O)c1ccc([N+](=O)[O-])s1
EC50: inactive

O=C1C(=O)c2cccnc2-c2ncccc21
EC50: 4.46 µM

CC1CCCC(NC(=O)COC(=O)c2ccc([N+](=O)[O-])s2)C1C (configuration not stated)
EC50: inactive

CS(=O)(=O)c1ccc(N)c(SSc2cc(S(C)(=O)=O)ccc2N)c1
EC50: > 104 µM (inactive)

OCC[n+]1c2ccccc2nc2ccc(N3CCOCC3)cc21
EC50: inactive

Nc1nc(=S)ss1
EC50: inactive

O=[N+]([O-])c1ccc(C=Nc2cccc3ccccc23)s1
EC50: > 104 µM (inactive)

Reference: PubChem BioAssay AID624497 (The Scripps Research Institute Molecular Screening Center, 2012)
